Data set [1] can be described thus: Kinetic Solubility Assay in pH 7.4 Buffer + 2% DMSO. In kind it is physicochemical. The following applies: phosphate-buffered saline pH 7.4 with 2% DMSO, aqueous buffer, kinetic from dmso stock, 25° C., two hours. As for the experimental part: Biological Example 9: Kinetic Solubility
Kinetic solubility assay in pH 7.4 Buffer+2% DMSO (“Kinetic Solubility Assay) was performed according to the following protocol: Briefly, using a 20 mM stock solution of the tested compounds in 100% DMSO, dilutions were prepared to a theoretical concentration of 400 μM in duplicates in phosphate-buffered saline pH 7.4 (138 mM NaCl, 2.7 mM KCl, 10 mM K-phosphate) with 2% final DMSO. The tested compounds dilutions in PBS were further allowed to equilibrate at 25° C. on a thermostatic shaker for two hours and then filtered through HTS filter plates using a vacuum manifold. The filtrates of the test compounds were diluted 2-fold with acetonitrile with 2% DMSO before measuring.
In parallel, using a 20 mM stock solution of the tested compounds in 100% DMSO, dilutions were prepared to theoretical concentrations of 0 μM (blank), 10 μM, 25 μM, 50 μM, 100 μM, and 200 μM in 50% acetonitrile/PBS with 2% final DMSO to generate calibration curves. Ondansetron was used as a reference compound to control proper assay performance. 200 μL of each sample was transferred to a 96-well plate and measured in the 230-550 nm range with a 5 nm step.
The concentrations of compounds in PBS filtrate are calculated using a dedicated Microsoft Excel calculation script. Proper absorbance wavelengths for calculations are selected for each compound manually based on absorbance maximums (absolute absorbance unit values for the minimum and maximum concentration points within the 0-3 OD range). Each final dataset is visually evaluated by the operator, and goodness of fit (R2) is calculated for each calibration curve. The effective range of this assay is approximately 2-400 μM and the compounds returning values close to the upper limit of the range may have higher actual solubility (e.g., 5′-deoxy-5-fluorouridine).
Table 8 show kinetic solubility data for selected compounds tested in the Kinetic Solubility assay described above.

Another data set has as its system JNK phosphorylation. Description: JNK Activation Assay (western blot), Panc-1. In kind it is cell-based, human. The following applies: at 10 μM, Panc-1 pancreatic cancer cell line; starred symbols = activation. As to the method:
Protocol for JNK Activation Assay
This assay is referred to as the “JNK Activation Assay” throughout this application.
Cell lines: Human tumor-derived pancreatic cancer cell line Panc-1 (expressing KRas […] mutant) was purchased from American Type Culture Collection and grown in complete DMEM-High Glucose medium, supplemented with penicillin (100 U/mL), streptomycin (100 μg/mL), and 10% heat-inactivated FBS at 37° C. in a humidified incubator with 5% CO2.
Method 1: Cells were plated at 350000 cells/well density in a 12-well plate, allowed 3 hours to adhere to the plate, then starved in the appropriate medium in the presence of 0.5% FBS overnight. The small molecules to be tested were added to the cells in the final concentration of 10 μM in the presence of 0.3% DMSO for 6 hours incubation at 37° C. For IC50 value determination, serial dilutions of compounds were added to cells under the same conditions. Next, cells were stimulated with 1.5 ng/ml EGF for 15 minutes then cells were lysed with lysis buffer containing 1% Triton X-100, EDTA, and Halt™ Protease & Phosphatase Inhibitor Cocktail (Thermo Scientific). Protein concentration was assessed by BCA protein assay (Thermo Scientific). Phosphorylation level of JNK was determined by western blot.
Method 2: Cells were plated at 350000 cells/well density in a 12-well plate in the presence of 10% FBS. The next day small molecules to be tested were added to the cells in the final concentration of 10 μM in the presence of 0.3% DMSO for 6 hours incubation at 37° C. For IC50 value determination, serial dilutions of compounds were added to cells under the same conditions. Next, cells were lysed with lysis buffer containing 1% Triton X-100, EDTA, and Halt™ Protease & Phosphatase Inhibitor Cocktail (Thermo Scientific). Protein concentration was assessed by BCA protein assay (Thermo Scientific). Phosphorylation level of JNK was determined by western blot.
Western blot protocol: Equal amounts of protein (15-50 μg) were separated by SDS-PAGE and transferred to nitrocellulose membranes (Invitrogen by Thermo Fisher Scientific). The membrane was stained with Ponceau S Stain (Boston BioProducts) to verify uniform protein loading. Membranes were blocked with 10% milk and phosphorylation levels of JNK were assessed by incubating overnight at 4° C. with the antibody Phospho-SAPK/JNK (Thr183/Tyr185), from Cell Signaling Technology. Then the membranes were incubated with HRP-conjugated secondary antibody (Jackson Immunoresearch, West Grove, PA). Bands were incubated in Amersham ECL Prime Western Blotting Detection Reagent (GE Healthcare) and visualized using the ChemiDoc MP imaging system (Bio-Rad).
In general terms: In western blotting, separated proteins are transferred to a membrane and probed.

What is called solubility is how much of the substance goes into solution per volume. For `COc1cc(Nc2nc(-c3nccn3C)nn3cc(-c4ccn(C)n4)c(C)c23)ncc1C` [Compound 235, N-(4-Methoxy-5-methylpyridin-2-yl)-5-methyl-2-(1-methyl-1H-imidazol-2-yl)-6-(1-methyl-1H-pyrazol-3-yl)pyrrolo[2,1-f][1,2,4]triazin-4-amine], in data set [1], the solubility at 2 h is under 10 µM.

For `Cc1ccc(Nc2nc(-c3nccn3C)nn3cc(-c4ccn(C)n4)c(C)c23)nc1` [Compound 226, 5-Methyl-2-(1-methyl-1H-imidazol-2-yl)-6-(1-methyl-1H-pyrazol-3-yl)-N-(5-methylpyridin-2-yl)pyrrolo[2,1-f][1,2,4]triazin-4-amine], the solubility at 2 h in data set [1] was under 10 µM.

In the case of `COCCNc1nc(-c2nccn2C)nn2cc(-c3cccc(OC)c3Cl)c(C)c12` [Compound 16, 6-(2-Chloro-3-methoxyphenyl)-N-(2-methoxyethyl)-5-methyl-2-(1-methyl-1H-imidazol-2-yl)pyrrolo[2,1-f][1,2,4]triazin-4-amine], the “% inh of JNK in Panc-1” value with JNK phosphorylation is reported as “F* (F* = 31-74% activation)”. As for `Cc1c(-c2ccn(C)n2)cn2nc(-c3nccn3C)nc(Nc3ccc(N(C)C)cn3)c12` [Compound 227, N5,N5-Dimethyl-N2-(5-methyl-2-(1-methyl-1H-imidazol-2-yl)-6-(1-methyl-1H-pyrazol-3-yl)pyrrolo[2,1-f][1,2,4]triazin-4-yl)pyridine-2,5-diamine], in data set [1], the solubility at 2 h is under 10 µM.

In the case of `COc1cccc(-c2cn3nc(-c4nccn4C)nc(O)c3c2C)c1Cl` [Compound 15, 6-(2-Chloro-3-methoxyphenyl)-5-methyl-2-(1-methyl-1H-imidazol-2-yl)pyrrolo[2,1-f][1,2,4]triazin-4-ol], the “% inh of JNK in Panc-1” value in the data set on JNK phosphorylation is listed as “F* (F* = 31-74% activation)”. On the same count and under the same terms, next, `COC1CCCN(c2nc(-c3ccccn3)nn3cc(-c4ccn(C(C)C)n4)c(C)c23)C1` (racemic) [Compound 12, rac 6-(1-Isopropyl-1H-pyrazol-3-yl)-4-(3-methoxypiperidin-1-yl)-5-methyl-2-(pyridin-2-yl)pyrrolo[2,1-f][1,2,4]triazine]: “E* (E* = 1-30% activation)”; `COc1cc(Nc2nc(-c3ccccn3)nn3cc(-c4ccn(C(C)C)n4)c(C)c23)ncn1` [Compound 13, 6-(1-Isopropyl-1H-pyrazol-3-yl)-N-(6-methoxypyrimidin-4-yl)-5-methyl-2-(pyridin-2-yl)pyrrolo[2,1-f][1,2,4]triazin-4-amine]: “H* (H* ≥ 100% activation)”. On to `COc1ccc(Nc2nc(-c3nccn3C)nn3cc(-c4ccn(C)n4)c(C)c23)nc1` [Compound 224, N-(5-Methoxypyridin-2-yl)-5-methyl-2-(1-methyl-1H-imidazol-2-yl)-6-(1-methyl-1H-pyrazol-3-yl)pyrrolo[2,1-f][1,2,4]triazin-4-amine], for which the solubility at 2 h in data set [1] is under 10 µM.

As to `COC[C@@H]1CC[C@@H]1CNc1nc(-c2ccccn2)nn2cc(-c3ccn(C(C)C)n3)c(C)c12` (racemic) [Compound 11, rac 6-(1-Isopropyl-1H-pyrazol-3-yl)-N-(((1S,2R)-2-(methoxymethyl)cyclobutyl)methyl)-5-methyl-2-(pyridin-2-yl)pyrrolo[2,1-f][1,2,4]triazin-4-amine], in the data set on JNK phosphorylation, the “% inh of JNK in Panc-1” value is “G* (G* = 75-99% activation)”. Still for that read-out and setting: next, `COc1cccc(Nc2nc(-c3ccccn3)nn3cc(-c4ccn(C(C)C)n4)c(C)c23)n1` [Compound 14, 6-(1-Isopropyl-1H-pyrazol-3-yl)-N-(6-methoxypyridin-2-yl)-5-methyl-2-(pyridin-2-yl)pyrrolo[2,1-f][1,2,4]triazin-4-amine]: “F* (F* = 31-74% activation)”. On to `Cc1c(-c2ccn(C)n2)cn2nc(-c3nccn3C)nc(Nc3cc(N4CCOCC4)ccn3)c12` [Compound 222, 5-Methyl-2-(1-methyl-1H-imidazol-2-yl)-6-(1-methyl-1H-pyrazol-3-yl)-N-(4-morpholinopyridin-2-yl)pyrrolo[2,1-f][1,2,4]triazin-4-amine], for which the solubility at 2 h in data set [1] was 10 to 30 µM.

As to `COc1cc(Nc2nc(-c3nccn3C)nn3cc(-c4ccn(C)n4)c(C)c23)ncc1C1CC1` [Compound 238, N-(5-Cyclopropyl-4-methoxypyridin-2-yl)-5-methyl-2-(1-methyl-1H-imidazol-2-yl)-6-(1-methyl-1H-pyrazol-3-yl)pyrrolo[2,1-f][1,2,4]triazin-4-amine], the solubility at 2 h in data set [1] was under 10 µM. With `Cc1c(-c2ccn(C)n2)cn2nc(-c3nccn3C)nc(Nc3cc4c(cn3)CCO4)c12` [Compound 221, N-(5-Methyl-2-(1-methyl-1H-imidazol-2-yl)-6-(1-methyl-1H-pyrazol-3-yl)pyrrolo[2,1-f][1,2,4]triazin-4-yl)-2,3-dihydrofuro[3,2-c]pyridin-6-amine], the solubility at 2 h in data set [1] fell in the range of 10 to 30 µM.

For `COCC1CCN(c2nc(-c3ccccn3)nn3cc(-c4ccn(C(C)C)n4)c(C)c23)C1` (racemic) [Compound 10, rac 6-(1-Isopropyl-1H-pyrazol-3-yl)-4-(3-(methoxymethyl)pyrrolidin-1-yl)-5-methyl-2-(pyridin-2-yl)pyrrolo[2,1-f][1,2,4]triazine], in the data set with JNK phosphorylation, the “% inh of JNK in Panc-1” value is recorded as “E* (E* = 1-30% activation)”.

For the origin of these results see US12459951B2, “Compounds that interact with RAS superfamily proteins for treatment of cancers, inflammatory diseases, rasopathies, and fibrotic disease” (SHY Therapeutics, LLC, priority 2022, dated 2025).
